What was measured:
arthritis model = test: Improvement effect on arthritis, sodium iodoacetate knee joint model in SD rats; format: in vivo; design: Pathological tissue score (joint): scale not given here; conditions: gavage every day 100 mg/kg/d; 4th week after operation; n = 10
Experimental: In this example, the improvement effect of compounds 1˜19 prepared in example 1 on arthritic was measured. (1) Animals: SD rats, four rates in one cage, were fed under the conditions of constant temperature (25±2° C.) and illumination control (12 h day/night circulation). The animals were fed with standard feed, and fed for at least 7 days to adapt environment before the experiment. […] (3) SD rats were fasted for 12 hours before operation, and weighed and recorded prior to operation. The blank control group was not treated any more. […] After anesthesia, they were fixed in the supine position. 0.1 ml of 1 g/L sodium iodoacetate solution was injected into the knee joint. From the fifth day, the animals were driven to run for 30 minutes every day, and they were allowed to move freely in the cage the rest of the time. After modeling, indomethacin and compounds 1˜19 were given by gavage every day at the dose of 100 mg/kg/d. The blank control group and the model control group were given equal volume of isotonic saline. At the 4th week after operation, the articular fluid of rats in each group was extracted to measure the content of MMP-13. The rats were killed, and the subchondral bone plate of the inner condyle of the tibia of the right knee was cut and processed into specimens, and pathological scores were made.

[1] = system: sodium taurocholate-induced pancreatitis model; test: Improvement effect on pancreatitis, sodium taurocholate-induced model in mice; format: in vivo, Blab/c mice; design: Pancreatic histopathological injury score: scale not given here; conditions: 17.5 mg/kg caudal vein 1 h, 3 h and 6 h after model construction; after 24 hours; n = 10
Source text: In this example, the improvement effect of compounds 1 19 prepared in example 1 on […] measured. (1) Animals: Adult and Healthy Male Blab/c Mice, 25 30 g. […] A model was made with sodium taurocholate. […] After anesthesia, the surgical site was sterilized with an alcohol cotton ball. The sterile gauze was placed on the surgical site. A laparotomy was made at the width of two fingers under the xiphoid process. After seeing the liver, an incision was made, the cotton swab soaked in normal saline was stretched into the enterocoelia, the duodenum was sought on the back of the liver, turned out and placed on the sterile gauze, the pancreaticobiliary duct and duodenal papilla were sought, and the needle of 1 mL syringe was used to pierce a hole on the along the direction of the nipple, a 24 G indwelling needle tube was inserted into the pancreatic duct along the nipple, and the common bile duct below the liver was closed with an arterial vascular clip, with a dose of 0.1 mL/100 g and 0.1 mL/min inject sodium taurocholate with a concentration of 3.8% at a flow rate. During this process, pay attention to adding saline to the exposed pancreas and duodenum to keep it moist. After the injection, the tube was slowly taken out and the bile duct was continued to be closed. The main tube was removed from the vascular artery clip 3 minutes later, the duodenum was also accommodated, and the abdominal cavity was sutured in double layers. The blank control group was injected with equal volume of isotonic saline. […] The blank control group and the model control group were given equal volume of isotonic saline. After 24 hours, pancreatic tissue and blood samples were taken, and the pancreatic histopathological injury score and the level of pancreatic amylase in serum were evaluated.

mouse hepatitis model = test: Improvement effect on hepatitis, concanavalin A (ConA) mouse hepatitis model; format: in vivo, Blab/c mice; conditions: gavage 50 mg/kg, n = 10
Experimental: In this example, the improvement effect of compounds 1 19 prepared in example 1 on […] measured. (1) Animals: Adult and Healthy Male Blab/c Mice, 25 30 g. […] The blank control group was injected with equal volume of isotonic saline. After modeling, indomethacin and compounds 1 19 were given by gavage every day at the dose of 50 mg/kg. The blank control group and the model control group were given equal volume of isotonic saline. Eyeball blood and liver tissue were taken at 6 h, 12 h, 24 h and 48 h after administration. The levels of serum alanine aminotransferase (ALT) and aspartate aminotransferase (AST) were measured.

| SMILES | MMP-13 content in joint fluid (arthritis model) [mg/L] | Pathological tissue score (joint) (arthritis model) | Amylopsin (pancreatic amylase level in serum) [1] [KU/L] | Pancreatic histopathological injury score [1] | Aspartate aminotransferase (AST) (mouse hepatitis model; 6 h after administration) [U/L] | Serum alanine aminotransferase (ALT) (mouse hepatitis model; 6 h after administration) [U/L] | Aspartate aminotransferase (AST) (mouse hepatitis model; 12 h after administration) [U/L] | Serum alanine aminotransferase (ALT) (mouse hepatitis model; 12 h after administration) [U/L] | Serum alanine aminotransferase (ALT) (mouse hepatitis model; 24 h after administration) [U/L] | Aspartate aminotransferase (AST) (mouse hepatitis model; 48 h after administration) [U/L] | Serum alanine aminotransferase (ALT) (mouse hepatitis model; 48 h after administration) [U/L] | Aspartate aminotransferase (AST) (mouse hepatitis model; 24 h after administration) [U/L] |
| --- | --- | --- | --- | --- | --- | --- | --- | --- | --- | --- | --- | --- |
| Cn1c(=O)c2c(ncn2C)n(C)c1=O [Caffeine, caffeine, reference compound] | 59 ± 8 | 2.6 ± 0.4 | 16 ± 2 | 2.6 ± 0.4 | 260 ± 31 | 590 ± 54 | 860 ± 91 | 1456 ± 132 | 2632 ± 321 | 943 ± 91 | 1432 ± 152 | – |
| CCn1c(=O)c2c(ncn2C)n(C)c1=O [Compound 1, 1-ethyl-3-7-dimethylxanthine] | 86 ± 4 | 0.2 ± 0.3 | 3 ± 1 | 0.4 ± 0.3 | 43 ± 7 | 56 ± 8 | 82 ± 8 | 97 ± 8 | 132 ± 12 | 89 ± 9 | 100 ± 12 | 104 ± 8 |
| CC(C)n1c(=O)c2c(ncn2C)n(C)c1=O [Compound 2, 1-isopropyl-3,7-dimethylxanthine] | 92 ± 8 | 0.3 ± 0.4 | 4 ± 2 | 0.6 ± 0.2 | 53 ± 7 | 59 ± 8 | 89 ± 8 | 98 ± 6 | 142 ± 12 | 99 ± 9 | 112 ± 13 | 112 ± 10 |
| CCn1c(=O)c2ncn(C)c2n(C)c1=O [Compound 3, 1-ethyl-3,9-dimethylxanthine] | 97 ± 4 | 0.6 ± 0.3 | 3 ± 2 | 0.5 ± 0.2 | 59 ± 7 | 67 ± 8 | 96 ± 8 | 102 ± 8 | 152 ± 14 | 103 ± 9 | 113 ± 12 | 114 ± 11 |
| CCn1cnc2c1c(=O)n(C)c(=O)n2C [Compound 4, 1,3-dimethyl-7-ethylxanthine] | 102 ± 8 | 0.6 ± 0.4 | 11 ± 2 | 1.4 ± 0.4 | 65 ± 7 | 79 ± 8 | 91 ± 8 | 118 ± 9 | 142 ± 12 | 96 ± 9 | 105 ± 13 | 103 ± 9 |
| CCn1c(=O)c2c(ncn2CC)n(C)c1=O [Compound 5, 1,7-diethyl-3-methylxanthine] | 99 ± 5 | 0.7 ± 0.3 | 3 ± 1 | 0.4 ± 0.2 | 71 ± 7 | 73 ± 8 | 93 ± 8 | 109 ± 8 | 136 ± 12 | 91 ± 9 | 105 ± 12 | 101 ± 8 |
| CC(C)n1cnc2c(=O)[nH]cnc21 [Compound 6, 9-isopropyl hypoxanthine] | 90 ± 8 | 0.3 ± 0.4 | 2 ± 1 | 0.4 ± 0.1 | 49 ± 7 | 56 ± 5 | 86 ± 8 | 85 ± 6 | 136 ± 16 | 84 ± 8 | 103 ± 13 | 103 ± 9 |
| CC(C)n1c(=O)c2c(ncn2C(C)C)n(C)c1=O [Compound 7, 1,7-diisopropyl-3-methylxanthine] | 84 ± 5 | 0.3 ± 0.3 | 4 ± 2 | 0.5 ± 0.2 | 41 ± 7 | 51 ± 8 | 78 ± 8 | 93 ± 8 | 131 ± 12 | 84 ± 7 | 95 ± 12 | 101 ± 8 |
| CC(=O)OCCn1c(=O)c2c(ncn2C)n(C)c1=O [Compound 8, 1-(acetic acid-2-ethyl)-3,7-dimethylxanthine] | 92 ± 8 | 0.4 ± 0.5 | 5 ± 2 | 0.8 ± 0.4 | 68 ± 7 | 67 ± 8 | 95 ± 8 | 110 ± 13 | 172 ± 16 | 98 ± 9 | 132 ± 13 | 122 ± 12 |
| CCC(=O)OCCn1c(=O)c2c(ncn2C)n(C)c1=O [Compound 9, 1-(propionic acid-2-ethyl)-3,7-dimethylxanthine] | 97 ± 7 | 0.6 ± 0.2 | 5 ± 3 | 0.5 ± 0.4 | 78 ± 7 | 78 ± 8 | 123 ± 8 | 110 ± 13 | 175 ± 18 | 131 ± 14 | 123 ± 12 | 142 ± 13 |
| CC(C)C(=O)OCCn1c(=O)c2c(ncn2C)n(C)c1=O [Compound 10, 1-(isopropyl acid-2-ethyl)-3,7-dimethylxanthine] | 91 ± 8 | 0.7 ± 0.4 | 7 ± 5 | 0.6 ± 0.4 | 87 ± 9 | 83 ± 8 | 167 ± 19 | 132 ± 13 | 186 ± 19 | 176 ± 17 | 154 ± 17 | 189 ± 15 |

From patent US20260083743A1, “NUCLEOSIDE DERIVATIVE FOR PREVENTING AND TREATING INFLAMMATION AND APPLICATION THEREOF” (WEST CHINA HOSPITAL OF SICHUAN UNIVERSITY, priority 2019, published 2026)
